Among the data in patent US8372823B2, “Tetracyclic inhibitors of fatty acid amide hydrolase” (The Scripps Research Institute, priority 2007, dated 2013) are IC50 and Ki values, retold here.

Holding throughout (type): biochemical
The target of one assay is T1, FAAH (Homo sapiens, UniProt O00519).
T1 sequence (O00519 1-579): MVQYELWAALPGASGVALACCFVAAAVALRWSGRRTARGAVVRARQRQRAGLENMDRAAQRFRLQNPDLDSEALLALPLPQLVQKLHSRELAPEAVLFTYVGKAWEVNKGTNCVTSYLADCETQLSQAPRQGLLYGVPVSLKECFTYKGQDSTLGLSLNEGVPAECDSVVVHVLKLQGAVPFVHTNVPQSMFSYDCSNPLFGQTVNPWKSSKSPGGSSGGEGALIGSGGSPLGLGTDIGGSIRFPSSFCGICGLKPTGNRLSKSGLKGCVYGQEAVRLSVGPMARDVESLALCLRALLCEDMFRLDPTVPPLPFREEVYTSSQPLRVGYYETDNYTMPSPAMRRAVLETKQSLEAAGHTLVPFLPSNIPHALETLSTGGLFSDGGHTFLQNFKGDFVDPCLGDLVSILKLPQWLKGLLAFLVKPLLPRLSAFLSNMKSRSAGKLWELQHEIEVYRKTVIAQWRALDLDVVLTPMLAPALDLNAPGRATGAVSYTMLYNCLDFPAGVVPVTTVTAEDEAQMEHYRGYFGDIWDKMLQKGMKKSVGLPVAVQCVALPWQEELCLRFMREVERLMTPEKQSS
Put plainly: FAAH inhibition IC50, human. Set-up: expressed in transfected cells; host or cells: COS-7 (transient transfection), solubilized membrane extracts. The conditions noted are these: inhibition at 3-5 test compound concentrations. Here is the method: (§1) Enzyme assays were performed at 20-23° C. with purified recombinant rat FAAH expressed in E. coli (Patricelli, M. P.; Lashuel, H. A.; et al. Biochemistry 1998, 37, 15177-15187) (unless indicated otherwise) or with solubilized COS-7 membrane extracts from cells transiently transfected with human FAAH cDNA (Giang, D. K.; Cravatt, B. F. Proc. Natl. Acad. Sci. U.S.A. 1997, 94, 2238-2242) (where specifically indicated) in a buffer of 125 mM Tris/1 mM EDTA/0.2% glycerol/0.02% Triton X-100/0.4 mM Hepes, pH 9.0 buffer (Patricelli, M. P.; Patterson, J. P.; et al. Bioorg. Med. Chem. Lett. 1998, 8, 613-618). […] NT=no data available.
(§2) IC50 values were determined from the inhibition observed at 3-5 different test compound concentrations (from three or more trials at each concentration) using the formula IC50=[I]/[K0/Ki)-1], where K0 is the control reaction rate without inhibitor and Ki is the rate with test compound at concentration [I] (Conde-Frieboes, K. et al. J. Am. Chem. Soc. 1996, 118, 5519-5525). NT=no data available.

In a further assay the target is T2, rat FAAH (Rattus norvegicus, UniProt P97612).
T2 construct: made in house; host or cells: E. coli
T2 sequence (P97612 1-579): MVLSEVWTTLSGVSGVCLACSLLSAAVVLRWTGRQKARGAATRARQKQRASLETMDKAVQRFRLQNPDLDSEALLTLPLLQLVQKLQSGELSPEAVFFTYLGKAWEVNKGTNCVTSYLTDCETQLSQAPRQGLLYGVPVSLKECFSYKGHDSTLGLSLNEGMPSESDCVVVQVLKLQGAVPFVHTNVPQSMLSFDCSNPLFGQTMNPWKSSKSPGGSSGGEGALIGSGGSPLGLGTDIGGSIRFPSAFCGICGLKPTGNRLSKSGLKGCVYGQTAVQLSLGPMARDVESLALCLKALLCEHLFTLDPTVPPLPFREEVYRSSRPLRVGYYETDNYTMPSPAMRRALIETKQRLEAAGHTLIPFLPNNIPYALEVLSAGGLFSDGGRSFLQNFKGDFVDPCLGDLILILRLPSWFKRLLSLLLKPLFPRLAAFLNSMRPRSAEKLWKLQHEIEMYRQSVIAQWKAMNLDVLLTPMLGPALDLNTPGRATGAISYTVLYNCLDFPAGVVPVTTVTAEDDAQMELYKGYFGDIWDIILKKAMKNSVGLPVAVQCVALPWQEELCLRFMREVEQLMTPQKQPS
Put plainly: FAAH inhibition IC50, rat. The conditions noted are these: inhibition at 3-5 test compound concentrations. Here is the method: as §1, §2

The target of assay [1] is T3, purified recombinant rat FAAH (Rattus norvegicus, UniProt P97612).
T3 construct: made in house; host or cells: E. coli
T3 sequence (P97612 1-579): T2 sequence (P97612 1-579)
Put plainly: FAAH enzyme assay, Ki (Dixon plot), rat FAAH.

Where [2] appears, read: purified recombinant rat FAAH expressed in E. coli, 14C-oleamide hydrolysis, pH 9.0, 20-23° C.

One may read the IC50 as the concentration at which inhibition is half-maximal. A low value points to higher potency. The term Ki denotes a dissociation constant, usually derived from enzyme kinetics or from competition with a known ligand. Turning to `COC(=O)c1cccc(-c2cnc(C(=O)CCc3ccc(Oc4ccccc4)cc3)o2)n1` [Example 12, 6-{2-[3-(4-Phenoxy-phenyl)-propionyl]-oxazol-5-yl}-pyridine-2-carboxylic acid methyl ester], the IC50 against FAAH came out at 2 nM; against rat FAAH, 5 nM. In addition, the Ki in assay [1] (setting [2]) turned out to be 13 nM.

As for `COC(=O)c1cccc(-c2cnc(C(=O)CCc3ccc(-c4ccc(CN5CCOCC5)cc4)cc3)o2)n1` [Example 35, 6-{2-[3-(4′-Morpholin-4-ylmethyl-biphenyl-4-yl)-propionyl]-oxazol-5-yl}-pyridine-2-carboxylic acid methyl ester], the IC50 is 21 nM against FAAH and 2 nM on rat FAAH. In addition, the Ki in assay [1] (setting [2]) was found to be 31 nM.

Regarding `O=C(CCc1ccc(Nc2ccccc2)cc1)c1ncc(-c2ccccn2)o1` [Example 11g, 1-Oxo-1-[5-(2-pyridyl)oxazol-2-yl]-3-(4-(phenylamino)phenyl)-propane], the Ki in assay [1] (setting [2]) came out at 2 nM.

As to `COC(=O)c1cccc(-c2cnc(C(=O)CCc3ccc(-c4ccc(CN5CCCC5)cc4)cc3)o2)n1` [Example 37], the Ki in assay [1] (setting [2]) is 18 nM.

For the compound `O=C(CCc1ccc(-c2ccccc2)cc1)c1ncc(-c2cccnc2)o1` [Example 31, 3-Biphenyl-4-yl-1-(5-pyridin-3-yl-oxazol-2-yl)-propan-1-one], the concentration for half-maximal inhibition (IC50) against FAAH was 22 nM; at rat FAAH, 2 nM. In addition, the inhibitory constant (Ki) in assay [1] (setting [2]) turned out to be 1.1 nM.

Take `N#Cc1cccc(-c2cnc(C(=O)CCc3ccc(-c4ccccc4)cc3)o2)n1` [Example 20, 6-[2-(3-Biphenyl-4-yl-propionyl)-oxazol-5-yl]-pyridine-2-carbonitrile]: the IC50 against FAAH worked out at 11 nM; at rat FAAH it was 2 nM. The Ki in assay [1] (setting [2]) worked out at 3 nM.

Turning to `O=C(O)c1ccc(-c2cnc(C(=O)CCc3ccc(-c4ccccc4)cc3)o2)nc1` [Example 25, 6-[2-(3-Biphenyl-4-yl-propionyl)-oxazol-5-yl]-nicotinic acid], the half-maximal inhibitory concentration (IC50) on FAAH amounted to 0.5 nM; against rat FAAH it was 0.3 nM. Moreover, in assay [1] (pH 9), the inhibitory constant (Ki) worked out at 14 nM.

As for `O=C(O)c1cccc(-c2cnc(C(=O)CCc3ccc(-c4ccc(CN5CCSCC5)cc4)cc3)o2)n1` [Example 42, 6-{2-[3-(4′-Thiomorpholin-4-ylmethyl-biphenyl-4-yl)-propionyl]-oxazol-5-yl}-pyridine-2-carboxylic acid], the Ki in assay [1] (setting [2]) turned out to be 28 nM.

Turning to `O=C(O)c1ccc(-c2cnc(C(=O)CCc3ccc(COc4ccccc4)cc3)o2)nc1` [Example 19, 6-{2-[3-(4-Phenoxymethyl-phenyl)-propionyl]-oxazol-5-yl}-nicotinic acid], the IC50 is 0.8 nM on FAAH and 2.5 nM on rat FAAH. For the same compound, in assay [1] (setting [2]), the inhibitory constant (Ki) was 4.6 nM.

As to `CN1CCN(Cc2ccc(-c3ccc(CCC(=O)c4ncc(-c5cccc(C(=O)O)n5)o4)cc3)cc2)CC1` [Example 45, 6-(2-{3-[4′-(4-Methyl-piperazin-1-ylmethyl)-biphenyl-4-yl]-propionyl}-oxazol-5-yl)-pyridine-2-carboxylic acid], in assay [1] (setting [2]), the inhibition constant (Ki) stood at 1230 nM.

In the case of `COC(=O)c1cccc(-c2cnc(C(=O)CCc3ccc(-c4ccc(CN5CCN(C)CC5)cc4)cc3)o2)n1` [Example 39, 6-(2-{3-[4′-(4-Methyl-piperazin-1-ylmethyl)-biphenyl-4-yl]-propionyl}-oxazol-5-yl)-pyridine-2-carboxylic acid methyl ester], the inhibitory constant (Ki) in assay [1] (setting [2]) was 200 nM.

In the case of `O=C(CCc1ccc(-c2ccccc2)cc1)c1ncc(-c2ccncc2)o1` [Example 30, 3-Biphenyl-4-yl-1-(5-pyridin-4-yl-oxazol-2-yl)-propan-1-one], the values for the IC50 on FAAH and against rat FAAH were 16 nM and 3 nM, respectively. In addition, in assay [1] (setting [2]), the Ki amounted to 2.3 nM.

For `CN(C)Cc1ccc(-c2ccc(CCC(=O)c3ncc(-c4cccc(C(=O)O)n4)o3)cc2)cc1` [Example 44, 6-{2-[3-(4′-Dimethylaminomethyl-biphenyl-4-yl)-propionyl]-oxazol-5-yl}-pyridine-2-carboxylic acid], the inhibition constant (Ki) in assay [1] (setting [2]) was found to be 150 nM.

Take `O=C(O)c1cccc(-c2cnc(C(=O)CCc3ccc(-c4ccc(CN5CCCC5)cc4)cc3)o2)n1` [Example 43, 6-{2-[3-(4′-Pyrrolidin-1-ylmethyl-biphenyl-4-yl)-propionyl]-oxazol-5-yl}-pyridine-2-carboxylic acid]: in assay [1] (setting [2]), the Ki was 127 nM.

`O=C(COc1cccc(OCc2ccccc2)c1)c1ncc(-c2ccccn2)o1` [Example 11d, 2-(3-(Benzyloxy)phenoxy)-1-(5-(pyridin-2-yl)oxazol-2-yl)ethanone]: the inhibition constant Ki in assay [1] (setting [2]) came to 2100 nM.

Regarding `COC(=O)c1cccc(-c2cnc(C(=O)CCc3ccc(-c4ccc(CN(C)C)cc4)cc3)o2)n1` [Example 38], in assay [1] (setting [2]), the inhibition constant (Ki) was found to be 29 nM.

Take `COC(=O)c1cccc(-c2cnc(C(=O)CCc3ccc(-c4ccc(CN5CCSCC5)cc4)cc3)o2)n1` [Example 36, 6-{2-[3-(4′-Thiomorpholin-4-ylmethyl-biphenyl-4-yl)-propionyl]-oxazol-5-yl}-pyridine-2-carboxylic acid methyl ester]: the inhibition constant (Ki) in assay [1] (setting [2]) was found to be 5 nM.

As to `O=C(CCc1ccc(Cc2ccccc2)cc1)c1ncc(-c2ccccn2)o1` [Example 11h, 1-Oxo-1-[5-(2-pyridyl)oxazol-2-yl]-3-(4-benzylphenyl)propane], the inhibitory constant (Ki) in assay [1] (setting [2]) came to 3.2 nM.

Consider `N#Cc1cccc(-c2cnc(C(=O)CCc3ccc(COc4ccccc4)cc3)o2)n1` [Example 48], for which the Ki in assay [1] (setting [2]) is 3 nM.

With `O=C(CCc1ccc(Sc2ccccc2)cc1)c1ncc(-c2ccccn2)o1` [Example 11i, 1-Oxo-1-[5-(2-pyridyl)oxazol-2-yl]-3-(4-(phenylthio)phenyl)propane], the Ki in assay [1] (setting [2]) was determined as 2.2 nM.

In the case of `O=C(CCc1ccc(COc2ccccc2)cc1)c1ncc(-c2cccc(-c3nnn[nH]3)n2)o1` [Example 47, 3-(4-Phenoxymethyl-phenyl)-1-{5-[6-(1H-tetrazol-5-yl)-pyridin-2-yl]-oxazol-2-yl}-propan-1-one], the Ki in assay [1] (setting [2]) was determined as 21 nM.

For `O=C(COc1ccc(OCc2ccccc2)cc1)c1ncc(-c2ccccn2)o1` [Example 11b, 2-(4-(Benzyloxy)phenoxy)-1-(5-(pyridin-2-yl)oxazol-2-yl)ethanone], the Ki in assay [1] (setting [2]) stood at 5300 nM.

For `O=C(O)c1cccc(-c2cnc(C(=O)CCc3ccc(-c4ccc(CN5CCCCC5)cc4)cc3)o2)n1` [Example 40, 6-{2-[3-(4′-Piperidin-1-ylmethyl-biphenyl-4-yl)-propionyl]-oxazol-5-yl}-pyridine-2-carboxylic acid], in assay [1] (setting [2]), the inhibition constant (Ki) was determined as 44 nM.

As for `O=C(CCc1cccc(OCc2ccccc2)c1)c1ncc(-c2ccccn2)o1` [Example 11c, 1-Oxo-1-[5-(2-pyridyl)oxazol-2-yl]-3-(3-(benzyloxy)phenyl)-propane], the inhibitory constant (Ki) in assay [1] (setting [2]) was found to be 25 nM.

With `COC(=O)c1cccc(-c2cnc(C(=O)CCc3ccc(-c4ccc(CN5CCCCC5)cc4)cc3)o2)n1` [Example 34, 6-{2-[3-(4′-Piperidin-1-ylmethyl-biphenyl-4-yl)-propionyl]-oxazol-5-yl}-pyridine-2-carboxylic acid methyl ester], the inhibitory constant (Ki) in assay [1] (setting [2]) was 9 nM.

Regarding `O=C(CCc1ccc(Oc2ccccc2)cc1)c1ncc(-c2ccccn2)o1` [Example 11f, 1-Oxo-1-[5-(2-pyridyl)oxazol-2-yl]-3-(4-phenoxyphenyl)propane], the Ki in assay [1] (setting [2]) worked out at 3.4 nM.
